Laboratory results taken from patent US10221139B2, “Inhibitors of histone demethylases” (Gilead Sciences, Inc., priority 2012, dated 2019).

How the values were obtained:
Assay type in all cases: biochemical
GASC1 (KDM4C, JMJD2C) = molecular target: T1, GASC1 (KDM4C, JMJD2C) (Homo sapiens, UniProt Q9H3R0); assay: Histone lysine demethylase AlphaLISA assay, GASC1; details: substrate BK9M3
T1 construct: 1-349; host or cells: E. coli
T1 sequence (Q9H3R0 1-349): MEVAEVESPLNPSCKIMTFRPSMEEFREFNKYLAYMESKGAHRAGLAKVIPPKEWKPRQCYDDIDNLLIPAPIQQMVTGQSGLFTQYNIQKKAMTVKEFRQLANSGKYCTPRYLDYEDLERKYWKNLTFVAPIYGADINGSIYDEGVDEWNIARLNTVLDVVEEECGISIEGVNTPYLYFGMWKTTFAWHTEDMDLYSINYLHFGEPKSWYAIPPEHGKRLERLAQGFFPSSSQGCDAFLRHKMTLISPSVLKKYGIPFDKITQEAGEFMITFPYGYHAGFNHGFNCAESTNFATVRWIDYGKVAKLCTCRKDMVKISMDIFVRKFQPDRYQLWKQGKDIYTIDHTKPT
Procedure: (§1) Example 2: Histone Lysine Demethylase AlphaLISA Assays for IC50 Value Determination
(§2) Assays are performed analogously to the protocol described by Perkin Elmer (Roy et al. Perkin Elmer Technical Note: AlphaLISA #12, April 2011).
(§3) Enzymes are dissolved in enzyme buffer and incubated for 10 min before 5 μL is added to 5 μL 3% DMSO solutions of compounds in enzyme buffer. Incubated for another 10 minutes, before 5 μL substrate solution is added and the reaction mixture is incubated at room temperature for the given period. 10 μL acceptor beads, suspended at given dilutions in Epigenetic Buffer (Perkin Elmer AL008) from stock, are added and the suspension is incubated 60 minutes in the dark at room temperature, before 10 μL suspension (at the given dilutions in Epigenetic Buffer) of streptavidin donor beads (Perkin Elmer 6760002) in Epigenetic Buffer is added. After incubation at room temperature in the dark the plates are read. Reaction conditions are seen in Table 2b.

PLU1 (KDM5B) = molecular target: T2, PLU1 (KDM5B) (Homo sapiens, UniProt Q9UGL1); assay: Histone lysine demethylase AlphaLISA assay, PLU1; details: substrate H3K4M3B
T2 construct: 1-809; host or cells: E. coli
T2 sequence (Q9UGL1 1-809): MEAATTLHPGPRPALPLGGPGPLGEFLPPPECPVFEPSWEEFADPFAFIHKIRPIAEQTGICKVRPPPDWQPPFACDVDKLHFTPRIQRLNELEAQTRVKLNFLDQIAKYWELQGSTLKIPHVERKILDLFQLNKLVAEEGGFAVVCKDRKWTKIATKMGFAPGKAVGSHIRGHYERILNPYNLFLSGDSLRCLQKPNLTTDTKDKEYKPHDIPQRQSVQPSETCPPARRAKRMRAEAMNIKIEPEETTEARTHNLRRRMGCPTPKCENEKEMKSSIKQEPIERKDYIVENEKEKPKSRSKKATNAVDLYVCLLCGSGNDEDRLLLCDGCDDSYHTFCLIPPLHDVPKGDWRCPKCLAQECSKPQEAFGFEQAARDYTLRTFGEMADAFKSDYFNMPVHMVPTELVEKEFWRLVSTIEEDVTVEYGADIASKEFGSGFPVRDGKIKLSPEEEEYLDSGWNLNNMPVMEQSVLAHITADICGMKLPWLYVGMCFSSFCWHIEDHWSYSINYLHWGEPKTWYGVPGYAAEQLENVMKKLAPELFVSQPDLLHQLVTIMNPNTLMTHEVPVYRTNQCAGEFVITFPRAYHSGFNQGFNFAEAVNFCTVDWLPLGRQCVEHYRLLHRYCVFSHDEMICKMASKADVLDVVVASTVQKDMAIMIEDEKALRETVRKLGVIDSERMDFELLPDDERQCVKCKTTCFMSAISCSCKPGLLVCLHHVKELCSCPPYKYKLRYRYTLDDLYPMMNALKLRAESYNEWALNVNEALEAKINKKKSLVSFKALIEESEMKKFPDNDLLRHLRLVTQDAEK
Procedure: as §1, §2, §3

UTX (KDM6A) = molecular target: T3, UTX (KDM6A) (Homo sapiens, UniProt O15550); assay: Histone lysine demethylase AlphaLISA assay, UTX; details: substrate BK27M3
T3 construct: 919-1401; host or cells: E. coli
Procedure: as §1, §2, §3

T3 sequence (O15550 919-1401): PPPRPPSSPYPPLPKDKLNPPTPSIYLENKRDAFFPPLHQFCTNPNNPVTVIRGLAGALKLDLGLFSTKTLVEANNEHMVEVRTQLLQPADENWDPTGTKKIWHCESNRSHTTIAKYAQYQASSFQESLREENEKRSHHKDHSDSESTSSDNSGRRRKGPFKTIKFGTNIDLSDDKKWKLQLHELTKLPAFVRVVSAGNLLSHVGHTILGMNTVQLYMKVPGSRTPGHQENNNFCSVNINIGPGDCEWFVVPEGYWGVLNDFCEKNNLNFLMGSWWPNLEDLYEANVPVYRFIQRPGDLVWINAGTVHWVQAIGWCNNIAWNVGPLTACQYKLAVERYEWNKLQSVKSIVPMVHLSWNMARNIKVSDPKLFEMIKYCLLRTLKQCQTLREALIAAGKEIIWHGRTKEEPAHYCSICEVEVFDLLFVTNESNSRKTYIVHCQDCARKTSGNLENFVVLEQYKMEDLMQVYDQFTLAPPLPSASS

Compound | IC50 (GASC1 (KDM4C, JMJD2C)) [nM] | IC50 (PLU1 (KDM5B)) [nM] | IC50 (UTX (KDM6A)) [nM]
2-[({2-[(2S)-1-benzylpyrrolidin-2-yl]ethyl}amino)methyl]pyridine-4-carboxylic acid [#45] | < 100 | < 100 | ≥ 1000
4-methoxyphenyl 2-({[4-(diethylamino)butyl]amino}methyl)pyridine-4-carboxylate [#51] | 100 to 1000 | < 100 | ≥ 1000
O=C(O)c1ccnc(CNC[C@@H](O)CO)c1 [#3, 2-({[(2R)-2,3-dihydroxypropyl]amino}methyl)pyridine-4-carboxylic acid] | 100 to 1000 | < 100 | ≥ 1000
CN(C)CCN(C)Cc1cc(C(=O)O)ccn1 [#6, 2-({[2-(dimethylamino)ethyl](methyl)amino}methyl)pyridine-4-carboxylic acid] | – | 100 to 1000 | ≥ 1000
O=C(O)c1ccnc(CNCCF)c1 [#8, 2-{[(2-fluoroethyl)amino]methyl}pyridine-4-carboxylic acid] | 100 to 1000 | 100 to 1000 | ≥ 1000
CSCCNCc1cc(C(=O)O)ccn1 [#12, 2-({[2-(methylsulfanyl)ethyl]amino}methyl)pyridine-4-carboxylic acid] | < 100 | < 100 | ≥ 1000
C=CCN(CC=C)C(=O)CNCc1cc(C(=O)O)ccn1 [#17, 2-[({[bis(prop-2-en-1-yl)carbamoyl]methyl}amino)methyl]pyridine-4-carboxylic acid] | < 100 | < 100 | ≥ 1000
CC(C)(C)OC(=O)N1CC[C@@H](NCc2cc(C(=O)O)ccn2)C1 [#19, 2-({[(3R)-1-[(tert-butoxy)carbonyl]pyrrolidin-3-yl]amino}methyl)pyridine-4-carboxylic acid] | ≥ 1000 | ≥ 1000 | ≥ 1000
CCN(CCN(C)C)C(=O)CNCc1cc(C(=O)Oc2ccc(C(C)(C)C)cc2)ccn1 [#61, 4-tert-butylphenyl 2-{[({[2-(dimethylamino)ethyl](ethyl)carbamoyl}methyl)amino]methyl}pyridine-4-carboxylate] | < 100 | < 100 | –
CCN(CCN(C)C)C(=O)CNCc1cc(C(=O)OC(CNC(=O)C(F)(F)F)CC(=O)OC(C)C)ccn1 (stereo not drawn) [#73, propan-2-yl 3-(2-{[({[2-(dimethylamino)ethyl](ethyl)carbamoyl}methyl)amino]methyl}pyridine-4-carbonyloxy)-4-(trifluoroacetamido)butanoate] | 100 to 1000 | 100 to 1000 | –
CCN(CCN(C)C)C(=O)CNCc1cc(C(=O)OC(CCNC(=O)C(F)(F)F)CC(=O)OC(C)C)ccn1 (stereo not drawn) [#74, propan-2-yl 3-(2-{[({[2-(dimethylamino)ethyl](ethyl)carbamoyl}methyl)amino]methyl}pyridine-4-carbonyloxy)-5-(trifluoroacetamido)pentanoate] | 100 to 1000 | < 100 | –
CCN(CCN(C)C)C(=O)CNCc1cc(C(=O)Nc2ccncc2)ccn1 [#75, 2-{[({[2-(dimethylamino)ethyl](ethyl)carbamoyl}methyl)amino]methyl}-N-(pyridin-4-yl)pyridine-4-carboxamide] | 100 to 1000 | < 100 | –
O=C(O)c1ccnc(CN2CCCCC2)c1 [#78, 2-(piperidin-1-ylmethyl)pyridine-4-carboxylic acid] | ≥ 1000 | ≥ 1000 | –
CC(C)C[C@@H](C(=O)N1CCCCC1)N(C)Cc1cc(C(=O)O)ccn1 [#93, 2-({methyl[(2S)-4-methyl-1-oxo-1-(piperidin-1-yl)pentan-2-yl]amino}methyl)pyridine-4-carboxylic acid] | ≥ 1000 | ≥ 1000 | –

Second part, the compound after the results:

IC50 (GASC1 (KDM4C, JMJD2C)) [nM] | IC50 (PLU1 (KDM5B)) [nM] | IC50 (UTX (KDM6A)) [nM] | Compound
100 to 1000 | < 100 | ≥ 1000 | O=C(O)c1ccnc(CNCC2CC2)c1 [#4, 2-{[(cyclopropylmethyl)amino]methyl}pyridine-4-carboxylic acid]
100 to 1000 | 100 to 1000 | ≥ 1000 | C#CCN(C)Cc1cc(C(=O)O)ccn1 [#7, 2-{[methyl(prop-2-yn-1-yl)amino]methyl}pyridine-4-carboxylic acid]
< 100 | – | ≥ 1000 | O=C(O)c1ccnc(CNCc2ccco2)c1 [#9, 2-{[(furan-2-ylmethyl)amino]methyl}pyridine-4-carboxylic acid]
≥ 1000 | 100 to 1000 | ≥ 1000 | O=C(O)c1ccnc(CNCc2ccc(-c3ccccc3)o2)c1 [#10, 2-({[(5-phenylfuran-2-yl)methyl]amino}methyl)pyridine-4-carboxylic acid]
< 100 | < 100 | ≥ 1000 | COCCN1CCN(C(=O)CNCc2cc(C(=O)O)ccn2)CC1 [#16, 2-[({2-[4-(2-methoxyethyl)piperazin-1-yl]-2-oxoethyl}amino)methyl]pyridine-4-carboxylic acid]
< 100 | < 100 | ≥ 1000 | O=C(O)c1ccnc(CNCC(=O)N2CCC[C@@H]2CN2CCCC2)c1 [#18, 2-[({2-oxo-2-[(2R)-2-(pyrrolidin-1-ylmethyl)pyrrolidin-1-yl]ethyl}amino)methyl]pyridine-4-carboxylic acid]
< 100 | < 100 | ≥ 1000 | O=C(O)c1ccnc(CNCCCNCCCN2CCCC2)c1 [#21, 2-{[(3-{[3-(pyrrolidin-1-yl)propyl]amino}propyl)amino]methyl}pyridine-4-carboxylic acid]
≥ 1000 | 100 to 1000 | – | COC(=O)c1ccnc(CNCCCN2CCCC2)c1 [#47, methyl 2-({[3-(pyrrolidin-1-yl)propyl]amino}methyl)pyridine-4-carboxylate]
< 100 | < 100 | – | CCN(CCN(C)C)C(=O)CNCc1cc(C(=O)OC(C)CC(C)=O)ccn1 (stereo not drawn) [#62, 4-oxopentan-2-yl 2-{[({[2-(dimethylamino)ethyl](ethyl)carbamoyl}methyl)amino]methyl}pyridine-4-carboxylate]
100 to 1000 | 100 to 1000 | – | CCN(CCN(C)C)C(=O)CNCc1cc(C(=O)OC(C)CCNC(=O)C(F)(F)F)ccn1 (stereo not drawn) [#63, 4-(trifluoroacetamido)butan-2-yl 2-{[({[2-(dimethylamino)ethyl](ethyl)carbamoyl}methyl)amino]methyl}pyridine-4-carboxylate]
< 100 | < 100 | – | CCN(CCN(C)C)C(=O)CNCc1cc(C(=O)Nc2nnc(C)o2)ccn1 [#76, 2-{[({[2-(dimethylamino)ethyl](ethyl)carbamoyl}methyl)amino]methyl}-N-(5-methyl-1,3,4-oxadiazol-2-yl)pyridine-4-carboxamide]
< 100 | < 100 | – | CCN(CCN(C)C)C(=O)CNCc1cc(C(=O)Nc2ccnn2C)ccn1 [#77, 2-{[({[2-(dimethylamino)ethyl](ethyl)carbamoyl}methyl)amino]methyl}-N-(1-methyl-1H-pyrazol-5-yl)pyridine-4-carboxamide]
< 100 | < 100 | – | CCN(CCN(C)C)C(=O)CNCc1cc(C(=O)Nc2ncco2)ccn1 [#84, 2-{[({[2-(dimethylamino)ethyl](ethyl)carbamoyl}methyl)amino]methyl}-N-(1,3-oxazol-2-yl)pyridine-4-carboxamide]
100 to 1000 | 100 to 1000 | – | CCN(CCN(C)C)C(=O)CNCc1cc(C(=O)Oc2c(OC(C)C)cccc2OC(C)C)ccn1 [#85, 2,6-bis(propan-2-yloxy)phenyl 2-{[({[2-(dimethylamino)ethyl](ethyl)carbamoyl}methyl)amino]methyl}pyridine-4-carboxylate]
